This is an account of results in patent US20150141251A1, “SPONTANEOUS SELF-FORMING MIXED SURFACTANT NANO-EMULSIONS FROM WATER INSOLUBLE PESTICIDES IN MIXED WATER MISCIBLE SOLVENTS” (priority 2012, published 2015).

This test relates to Alfalfa weevil. Nature of the test: Alfalfa weevil control on sprayed Alfalfa plots. It counts as in vivo. The conditions noted are these: Treatment No. 2, 0.022 lb active ingredient per acre. From the text: The relative effect of pesticidal formulation of the present disclosure was studied for controlling Alfalfa weevil on Alfalfa:
To study the effect of formulation of the present disclosure, four 10×20 sq.ft plots of Alfalfa were set up for each treatment and 20 gal/acre test solution was sprayed with hand sprayer. Then 10 stems of Alfalfa per replication were collected randomly after 4 days and 7 days of treatment. The stems so collected were shaken into 1 gal white container. The evaluation results obtained are provided herein Table No. 5.

As for `CC1(C)C(C=C(Cl)Cl)C1C(=O)OC(C#N)c1ccc(F)c(Oc2ccccc2)c1` (stereo not drawn) [Beta- CYFLUTHRIN], the “Alfalfa weevil larvae/10 stems (Mean ± SE)” value reads like this: (4 Days after treatment) 0.3 ± 0.3 larvae/10 stems; (7 Days after treatment) 0.0 ± 0.0 larvae/10 stems.
